Data from article PMC6609550, “Blockade of the forward Na^+/Ca^2+ exchanger suppresses the growth of glioblastoma cells through Ca^2+‐mediated cell death” (British Journal of Pharmacology, 2019).

Experiments:
Format in all cases: cell-based, Human
[Ca^2+]i in U87 cells = Ca2+ imaging (Fluo-4 AM) of U87 cells; conditions: BAPTA‐AM 20 μM for 2 hr before perfusion
Experimental: Cells were cultured in 96‐well plates at 8 × 10^3 per well and loaded with the cell membrane‐permeable Ca^2+ dye Fluo‐4 AM (5 μM) in 100‐μl HEPES‐buffered solution for 50 min. The solution contained (mM): 135 NaCl, 3 KCl, 2 CaCl2, 1 MgCl2, 10 glucose, and 10 HEPES, supplemented with 1% FBS at pH 7.4. To prepare the Ca^2+‐free solution, 2‐mM CaCl2 was replaced with 1‐mM EGTA in the HEPES‐buffered solution. The 96‐well plate containing the Fluo‐4 AM‐loaded cells was mounted in a Leica TCS SP8 confocal system (Leica Microsystems, Wetzlar, Germany). The confocal microscope armed with 488‐nm laser light was employed to excite the dynamic fluorescent signals in time and synchronously, while test regents were added to cells. To do Na^+ imaging, Fluo‐4 AM was replaced with the cell membrane‐permeable Na^+ dye Asante NaTrium Green‐2 AM (ANG‐2 AM) at 5 μM, which was excited by 514‐nm laser light. Visual inspection and fluorescent imaging were carried out at room temperature. The imaging data were analysed with the software https://leica-las-af-lite.software.informer.com/ 2.5 (Leica). The imaging traces shown are representative of at least three separate experiments; 12–18 cells were imaged in each experiment.

U87 cells [1] = assay: Cell cycle assay (PI staining, flow cytometry) of U87 cells
Experimental: (§1) U87 cells were seeded in six‐well plates (Corning, Corning, NY, USA) with 1 × 10^6 cells per well and treated with NCX blockers, BAPTA‐AM, or MAPK inhibitors. Drug treatment was performed by the person who is blinded to the experimental groups. After treatment, cells were harvested in 15‐ml tubes and washed with cold sterile PBS. After being centrifuged, cells were fixed with 70% ethanol […] at 4°C for at least 1 hr. For propidium iodide (PI) staining, cells were washed one time with PBS and then were treated with ribonuclease A (RNase; 100 μg·ml^−1) for 30 min. PI (10 μg·ml^−1) was added, and stained cells were kept in the dark at 4°C until analysis. The number of cells analysed for each sample was 10,000 events. FACS analysis was performed using the Coulter CytoFlexS flow cytometer (Beckman Coulter, CA, USA), and the percentage of cells in the G0/G1, S, and G2/M phases was determined using cell cycle analysis software, ModFit LT 5.0 (Verity Software House, Topsham, ME, USA). For the apoptosis assay, cells were harvested and washed twice with cold PBS and resuspended at a density of 1 × 10^6 cells·ml^−1 in 100 μl of binding buffer containing 5 μl of Annexin V–FITC and 5 μl of PI working solution (100 μg·ml^−1). After incubation at room temperature for 15 min in the dark, 400 μl of binding buffer was added to each sample. Apoptosis was analysed by Coulter CytoFlexS flow cytometer (Beckman Coulter) for at least 10,000 events, and data were analysed with the software, CyExpert 2.0 (Beckman Coulter).

U87 cells [2] = assay: Annexin V–FITC/PI apoptosis assay of U87 cells
Experimental: as §1

p38‐MAPK = assay: Western blot of phosphorylated and total p38-MAPK in U87 cells; conditions: BAPTA‐AM 10 μM 18 hr then bepridil 25 μM 30 min
Experimental: (§2) After treatment with bepridil for 0, 30, 60, and 90 min, cells were collected and lysed in RIPA buffer (Beyotime, Nanjing, China) supplemented with protease inhibitor (Beyotime). The total protein concentration of each sample was determined using the BCA Protein Assay Kit (Sangon Biotech, Shanghai, China). Equal protein extracts (45‐μg protein per lane) were separated by SDS‐PAGE and electrophoretically transferred to PVDF membranes (Millipore, Bedford, MA, USA). Then, the membranes were incubated with anti‐phosphorylated and total http://www.guidetopharmacology.org/GRAC/FamilyDisplayForward?familyId=514, http://www.guidetopharmacology.org/GRAC/FamilyDisplayForward?familyId=518, and http://www.guidetopharmacology.org/GRAC/FamilyDisplayForward?familyId=519 antibodies (1:1,000; Cell Signaling Technology) at 4°C overnight, followed by incubation with IRDye 680LT fluorescent secondary antibody (LI‐COR Biosciences, Lincoln, NE, USA). Proteins were visualized using the Odyssey Fc Imaging System (LI‐COR Biosciences, Lincoln, NE, USA). Mouse α‐tubulin antibody was used as protein loading controls. The immuno‐related procedures used comply with the recommendations made by the British Journal of Pharmacology (Alexander et al., 2018).

JNK = assay: Western blot of phosphorylated and total JNK in U87 cells; conditions: BAPTA‐AM 10 μM 18 hr then bepridil 25 μM 30 min
Experimental: as §2

[3] = BAPTA‐AM 10 μM 18 hours then CB‐DMB 3.5 μM 18 hours

CC(=O)OCOC(=O)CN(CC(=O)OCOC(C)=O)c1ccccc1OCCOc1ccccc1N(CC(=O)OCOC(C)=O)CC(=O)OCOC(C)=O [BAPTA‐AM, 1,2‐bis(2‐aminophenoxy)ethane‐N,N,N′,N′‐tetraacetic acid tetrakis (acetoxymethyl ester)]
Effect of pretreatment on the influence of bepridil and KB‐R7943 on [Ca2+]i ([Ca^2+]i in U87 cells): completely abrogated | Effect on CB-DMB-induced cell cycle arrest (U87 cells [1]; [3]): significantly attenuated | Effect on KB-R7943-induced G0/G1 arrest (U87 cells [1]; BAPTA‐AM 10 μM + KB‐R7943 25 μM, 18 hr): not rescued | Effect on bepridil-induced G0/G1 cell cycle arrest (U87 cells [1]; bepridil 25 μM 18 hr, pretreatment BAPTA‐AM 10 μM, CC‐930 10 μM or PD169316 10 μM): significantly attenuated | Effect on CB-DMB-induced apoptosis (U87 cells [2]; [3]): significantly suppressed | Effect on KB-R7943-induced apoptosis (U87 cells [2]; BAPTA‐AM 10 μM + KB‐R7943 25 μM, 20 hr): not attenuated | Effect on bepridil-induced apoptosis (U87 cells [2]; bepridil 25 μM 24 hr, pretreatment BAPTA‐AM 10 μM, CC‐930 10 μM or PD169316 10 μM): significantly attenuated | Effect on bepridil-induced p38-MAPK activation (p38‐MAPK): attenuated | Effect on bepridil-induced JNK activation (JNK): attenuated
